# Tests used:
# [1] = test system: HCT-116 cells stably over-expressing cytochrome P450 reductase (CYPOR); assay: Flow cytometry of metabolism and binding (EF5 antibody); assay type: cell-based, human; details: 2 h
# Method: (§1) FIG. 4 illustrates the results of a second independent flow cytometry analysis of compound 15 and 93 metabolism and binding in wild-type HCT-116 cells, HCT-116 cells stably over-expressing cytochrome P450 reductase (CYPOR), a human one-electron reductase known to metabolise nitroheterocyclic and nitroaromatic compounds, or HCT-116 cells stably expressing the bacterial nitroreductase E. coli NfsA. 1×10^6HCT-116 cells were seeded in 6 well plates underaerobic conditions (21% O2, 5% CO2). After 2 h incubation, drug free control (wild-type HCT-116, foreground), 20 μM (wild-type HCT-116, second plot), 100 μM (wild-type HCT-116, third plot), 20 μM (HCT-116-CYPOR, forth plot), 100 μM (HCT-116-CYPOR, fifth plot) or 20 μM (HCT-116-NfsA, sixth plot) of compound 15 or 93 was added. After 2 h incubation cells were harvested and fixed with paraformaldehyde before being incubated overnight with 100 μl of 75 μg/ml EF5 CY5 conjugated antibody. Samples were then analysed on a Becton Dickinson FACscan flow cytometer.
# FIG. 5 illustrates the results of flow cytometry analysis of HCT-116 cells stably over-expressing cytochrome P450 reductase (CYPOR), a human one-electron reductase known to metabolise nitroheterocyclic and nitroaromatic compounds. 1×10^6HCT-116-CYPOR cells were seeded in 6 well plates in aerobic, anoxic and 0.2% oxygen conditions designed to replicate the lower limit of pathological hypoxia observed in human tumours. After 2 h incubation, drug free control (foreground), 20 μM (middle) or 100 μM (background) of compound 15 or 67 was added. After 2 h incubation cells were harvested and fixed with paraformaldehyde before being incubated overnight with 100 μl of 75 μg/ml EF5 CY5 conjugated antibody. Samples were then analysed on a Becton Dickinson FAC scan flow cytometer.
# (§2) FIG. 6 illustrates the results of flow cytometry analysis of compound 15 and 93 metabolism and binding in wild-type HCT-116 cells and HCT-116 cells stably over-expressing cytochrome P450 reductase (CYPOR), a human one-electron reductase known to metabolise nitroheterocyclic and nitroaromatic compounds. 1×10^6 HCT-116 cells were seeded in 6 well plates underanoxic conditions. After 2 h incubation, drug free control (wild-type HCT-116, foreground), 20 μM (wild-type HCT-116, second plot), 100 μM (wild-type HCT-116, third plot), 20 μM (HCT-116-CYPOR, forth plot) or 100 μM (HCT-116-CYPOR, fifth plot) of compound 15 or 93 was added. After 2 h incubation cells were harvested and fixed with paraformaldehyde before being incubated overnight with 100 μl of 75 μg/ml EF5 CY5 conjugated antibody. Samples were then analysed on a Becton Dickinson FACscan flow cytometer.
# [2] = test system: human solid tumour xenograft NCI-H1299 (WT); assay: Hypoxia-dependent binding by ex vivo flow cytometry with pimonidazole co-staining; assay type: in vivo, NIH-III nude mice; details: 60 mg/kg i.p.; tumours excised after 120 minutes, single cell suspension
# Method: FIG. 11 illustrates the absence of hypoxic-dependent binding of compound 67 and compound 93 by flow cytometry in the human solid tumour xenograft NCI-H1299, with reference to hypoxia staining by compound 15 and pimonidazole (Hypoxyprobe™) as internal standards (positive controls). NCI-H1299 WT tumours were inoculated subcutaneously onto the flank of NIH-III nude mice. When the mixed tumours reached approximately 800 mm^3, mice were dosed i.p. with 60 mg/kg of pimonidazole, and 60 minutes later dosed with either 60 mg/kg of compound 15, or 60 mg/kg of compound 67, or 60 mg/kg of compound 93. After 120 minutes the tumours were excised and enzyme digested to form a single cell suspension before fixation in ice cold 80% ethanol. Single cell immunodetection of bound adducts of compounds was performed using a monoclonal antibody (Mab1, hybridoma clone 4.3.11.3) conjugated to Alexa-488 (Ex/Em 499/519; green) for the detection of pimonidazole adducts, and monoclonal antibody ELK3-51 directly conjugated to the fluorophore CY5 (Ex/Em 650/670 nm; red) for detection of adducts formed by compound 15 or compound 67 or compound 93. The ex-vivo tumour cell samples were analysed on a Becton Dickinson FACscan flow cytometer using FACS Diva software. Integrated fluorescence measurements were recorded for 10,000 single non-debris events. Fluorescence emission was monitored at 530 nm±20 and 670-700 nm for detection of Alexa-488 and CY5 conjugated monoclonal antibodies, respectively.
# CO-Frp (V.h) = biological target: T1, CO-Frp (V.h) (Vibrio harveyi, UniProt Q56691); assay: Initial rate of metabolism by purified recombinant bacterial nitroreductase (NADPH consumption, UV/Vis); assay type: biochemical; details: compound 500 μM, NADPH 200 μM, 10 mM Tris-Cl pH 7.0; μmol NADPH consumed per mg enzyme per minute
# T1 construct: made in house
# T1 sequence (Q56691 whole entry): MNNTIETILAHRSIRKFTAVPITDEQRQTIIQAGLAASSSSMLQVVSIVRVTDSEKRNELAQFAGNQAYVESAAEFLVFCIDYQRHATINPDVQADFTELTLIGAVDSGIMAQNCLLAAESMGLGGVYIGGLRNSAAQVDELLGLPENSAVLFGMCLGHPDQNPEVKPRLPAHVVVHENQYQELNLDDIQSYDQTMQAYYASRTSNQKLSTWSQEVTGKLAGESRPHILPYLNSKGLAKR
# Method: (§3) The relative initial rates of reductive metabolism of the nitro moiety of test compounds by bacterial nitroreductase's can be measured experimentally by incubating the test compound at near-saturating concentration (determined empirically) with the purified recombinant bacterial nitroreductase enzymes in the presence of NADPH co-factor. UV/Vis spectroscopy is used to measure consumption of the co-factor, indicating metabolism of the test compound by the nitroreductase.
# (§4) Compounds 67, 93 and 97 (500 μM) were added to NADPH (200 μM) in 10 mM Tris-Cl pH 7.0. Reactions were initiated by enzyme addition (between 5 and 20 μg per reaction). Rates represent μmol of NADPH consumed per mg enzyme added per minute.
# NfrA (B.s) = biological target: T2, NfrA (B.s) (Bacillus subtilis, UniProt P39605); assay: as above; assay type: biochemical; details: compound 500 μM, NADPH 200 μM, 10 mM Tris-Cl pH 7.0; μmol NADPH consumed per mg enzyme per minute
# T2 construct: made in house
# T2 sequence (P39605 whole entry): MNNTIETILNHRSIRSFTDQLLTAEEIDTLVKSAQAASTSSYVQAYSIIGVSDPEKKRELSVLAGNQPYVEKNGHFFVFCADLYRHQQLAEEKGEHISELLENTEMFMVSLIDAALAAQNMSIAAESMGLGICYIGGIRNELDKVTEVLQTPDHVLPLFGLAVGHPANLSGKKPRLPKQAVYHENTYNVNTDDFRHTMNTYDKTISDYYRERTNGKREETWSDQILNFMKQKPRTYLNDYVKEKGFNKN
# Method: as §3, §4
# NfsA (E.c) = biological target: T3, NfsA (E.c) (Escherichia coli, UniProt P17117); assay: as above; assay type: biochemical; details: compound 500 μM, NADPH 200 μM, 10 mM Tris-Cl pH 7.0; μmol NADPH consumed per mg enzyme per minute
# T3 construct: made in house
# T3 sequence (P17117 whole entry): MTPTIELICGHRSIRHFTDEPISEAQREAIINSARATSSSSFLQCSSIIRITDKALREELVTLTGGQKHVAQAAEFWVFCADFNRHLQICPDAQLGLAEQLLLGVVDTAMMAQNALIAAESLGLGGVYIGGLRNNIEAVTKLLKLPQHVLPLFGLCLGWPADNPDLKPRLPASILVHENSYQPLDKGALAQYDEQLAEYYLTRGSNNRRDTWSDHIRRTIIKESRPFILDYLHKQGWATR
# Method: as §3, §4
# [3] = test system: HCT116 wild type (WT) cancer cells; assay: Inhibition of cell proliferation, low cell density IC50 assay; assay type: cell-based; details: Homo sapiens, HCT-116; 4 hour drug exposure, washing and regrowth for 5 days
# Method: IC50 values were determined as the concentration of prodrug required to inhibit cell growth by 50% of untreated controls following 4 hour drug exposure, with washing and regrowth for 5 days. WT:NfsA ratios were determined as the WT IC50/NfsA IC50.
# wild-type HCT-116 cells = assay: Flow cytometry of metabolism and binding (EF5 antibody); assay type: cell-based, human; details: for Metabolism and binding by FACS, wild-type HCT-116 cells (FIG. 3): 20 μM, 2 hours, oxic conditions (21% O2, 5% CO2)
# Method: FIG. 3 illustrates the results of flow cytometry analysis of HCT-116 cells stably expressing E. coli NfsA relative to HCT-116 wild-type cells after in vitro exposure to 20 μM of compounds 15, 93 and 67 for 2 hours. 1×10^6 cells were incubated with test compounds under oxic conditions. Samples were fixed and stained with EF5 antibody Alexa 488 ELK3.51 at 100 μg/ml. Samples were then analysed on a Becton Dickinson FACscan flow cytometer.
# as §1, §2
smiles,measurement,setting,value
"Cc1ncc([N+](=O)[O-])n1CC(=O)NCC(F)(F)C(F)(F)F [Compound 67, 2-(2-methyl-5-nitro-1H-imidazol-1-yl)-N-(2,2,3,3,3-pentafluoropropyl)acetamide]","Metabolism and binding by FACS, HCT-116-CYPOR cells, 0.2% oxygen (FIG. 5)","[1]; 20 μM or 100 μM, 0.2% oxygen",negligible metabolism and binding
same,"Metabolism and binding by FACS, HCT-116-CYPOR cells, aerobic (FIG. 5)","[1]; 20 μM or 100 μM, aerobic",negligible metabolism and binding
same,"Hypoxia-dependent binding in NCI-H1299 WT tumours, flow cytometry (FIG. 11)",[2],unable to bind to and thus detect pimonidazole-positive (hypoxic) tumour cells
same,Rate of metabolism by CO-Frp (V.h),CO-Frp (V.h),1.1 µmol/min/mg
same,Rate of metabolism by NfrA (B.s),NfrA (B.s),1.7 µmol/min/mg
same,Rate of metabolism by NfsA (E.c),NfsA (E.c),2.7 µmol/min/mg
same,IC50,[3],6.31 mM
same,"Metabolism and binding by FACS, wild-type HCT-116 cells (FIG. 3)",wild-type HCT-116 cells,minimal metabolism and binding
"O=C(Cn1cnc([N+](=O)[O-])c1)NCC(F)(F)C(F)(F)F [Compound 93, 2-(4-nitro-1H-imidazol-1-yl)-N-(2,2,3,3,3-pentafluoropropyl)acetamide]","Metabolism and binding by FACS, HCT-116-CYPOR cells (FIG. 4)","[1]; 20 μM and 100 μM, aerobic conditions",minimal metabolism and binding
same,"Metabolism and binding by FACS, HCT-116-CYPOR cells, anoxia (FIG. 6)","[1]; 20 μM and 100 μM, anoxic conditions",negligible metabolism and binding
same,"Hypoxia-dependent binding in NCI-H1299 WT tumours, flow cytometry (FIG. 11)",[2],unable to bind to and thus detect pimonidazole-positive (hypoxic) tumour cells
same,Rate of metabolism by CO-Frp (V.h),CO-Frp (V.h),12.2 µmol/min/mg
same,Rate of metabolism by NfrA (B.s),NfrA (B.s),7.5 µmol/min/mg
same,Rate of metabolism by NfsA (E.c),NfsA (E.c),7.6 µmol/min/mg
same,IC50,[3],1.45 mM
same,"Metabolism and binding by FACS, wild-type HCT-116 cells (FIG. 4)","wild-type HCT-116 cells; 20 μM and 100 μM, 2 h, aerobic conditions",minimal metabolism and binding
same,"Metabolism and binding by FACS, wild-type HCT-116 cells, anoxia (FIG. 6)","wild-type HCT-116 cells; 20 μM and 100 μM, 2 h, anoxic conditions",negligible metabolism and binding
same,"Metabolism and binding by FACS, wild-type HCT-116 cells (FIG. 3)",wild-type HCT-116 cells,minimal metabolism and binding

# Source: patent US20150010474A1, “Compounds And Methods For Selective Imaging And/Or Ablation” (Auckland Uniservices Limited, priority 2011, published 2015)
